Assay results as given in PubChem BioAssay (NCI).
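These data come from cells grown in 96-well plates and exposed to compound for 48 hours at five concentrations. GI50 is the concentration that inhibits growth by half. TGI: concentration producing complete growth inhibition.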

Legend:
Test in all cases: NCI anticancer screen, dose series, 48 h
[1] = system: SW-620 colon
[2] = system: NCI-H226 lung
[3] = system: MDA-MB-231 breast
[4] = system: NCI-H460 lung
[5] = system: COLO 205 colon
[6] = system: MCF7 breast
[7] = system: RPMI-8226 leukemia
[8] = system: HCT-15 colon
[9] = system: SR leukemia
[10] = system: SK-MEL-2 melanoma

SMILES | GI50 [1] | TGI [1] | GI50 [2] | TGI [2] | GI50 [3] | TGI [3] | GI50 [4] | TGI [4] | GI50 [5] | TGI [5] | GI50 [6] | TGI [6] | GI50 [7] | TGI [7] | GI50 [8] | TGI [8] | GI50 [9] | TGI [9] | GI50 [10] | TGI [10]
NC(=O)c1c(OCc2c(F)cc(Br)cc2F)nsc1NC(=O)NCCCCN1CCCC1 | 3.03 µM | > 10 µM | 0.453 µM | > 10 µM | 1.55 µM | 5.02 µM | 2.6 µM | > 10 µM | 1.9 µM | 4.05 µM | 1.99 µM | > 10 µM | 2.4 µM | 6 µM | 2.85 µM | > 10 µM | 1.74 µM | 4.37 µM | > 10 µM | > 10 µM
COc1cc(/C=C2\C(=O)N(c3c(Cl)cccc3Cl)c3ccccc32)cc(OC)c1O | 0.702 µM | 16.2 µM | 7.91 µM | 29 µM | 2.56 µM | 31.5 µM | 0.342 µM | 4.58 µM | 5.94 µM | 18.7 µM | 0.524 µM | 9.26 µM | 0.718 µM | 11.7 µM | 0.0682 µM | 11.2 µM | 0.0847 µM |  | 1.23 µM | 15.4 µM
C=CC1=C(C)C2=NC1=CC1=NC(=C(CC)/C1=C/O)C=C1C=C3C(=O)C(C(=O)OC)C(=C4NC(=C2)C(C)C4CCC(=O)OC/C=C(\C)CCCC(C)CCCC(C)CCCC(C)C)C3=N1 (centres undefined) (tested in a mixture with another compound) |  | > 100 µM |  | > 100 µM |  | > 100 µM |  | > 100 µM |  | > 100 µM |  | > 100 µM |  | > 100 µM |  | > 100 µM |  | > 100 µM |  | > 100 µM
CCOC(=O)C(=Cc1ccc(Br)cc1)C(=O)OCC | 1.61 µM | 3.58 µM | 1.96 µM | 5.5 µM | 2.08 µM | 5.37 µM | 2.37 µM | 5.73 µM | 1.89 µM | 3.94 µM | 1.66 µM | 6.67 µM | 0.27 µM | 1.32 µM | 1.44 µM | 3.5 µM | 2.41 µM | > 23.1 µM | 2.02 µM | 4.39 µM
O=C1C(Nc2ccccn2)=C(I)C(=O)c2ncccc21 | 0.33 µM | 1.63 µM | 1.43 µM | 3.08 µM | 1.53 µM | 4.86 µM | 0.295 µM | 1.1 µM | 1.9 µM | 3.68 µM | 0.396 µM | 2.07 µM | 1.19 µM | 3.73 µM | 0.226 µM | 1.39 µM | 0.274 µM | 10 µM | 1.76 µM | 3.51 µM
